# Test results published in PubChem BioAssay AID1963840 (Molecular Pharmacology Branch, DTP, NCI, 2024).
# Test system: 695427-040-R-J1-PDC complex spheroid viability
# Assay: Anticancer human tumor 695427-040-R-J1-PDC patient-derived colon adenocarcinoma cell line growth inhibition [POLQ]
# Settings: for IC50: curve of first compound; for viability, T/C: stronger effect = lower value
# In short: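 Growth inhibition in 3D: complex spheroids (tumor PDC, HUVEC, MSC) treated with POLQ inhibitor combinations; where Cmax unknown, highest tested concentration 10 microM, except SN-38 at 1 microM.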
# [1] = second compound 0.0316 µM, first compound 0.00316 µM
# [2] = second compound 0.0316 µM, first compound 0.01 µM
# [3] = second compound 0.0316 µM, first compound 0.0316 µM
# [4] = second compound 0.0316 µM, first compound 0.1 µM
# [5] = second compound 0.0316 µM, first compound 0.316 µM
# [6] = second compound 0.0316 µM, first compound 1 µM
# [7] = second compound 0.1 µM, first compound 0.00316 µM
# [8] = second compound 0.1 µM, first compound 0.01 µM
# [9] = second compound 0.1 µM, first compound 0.0316 µM
# [10] = second compound 0.1 µM, first compound 0.1 µM
# [11] = second compound 0.1 µM, first compound 0.316 µM
# [12] = second compound 0.1 µM, first compound 1 µM
# [13] = second compound 0.316 µM, first compound 0.00316 µM
# [14] = second compound 0.316 µM, first compound 0.01 µM
# [15] = second compound 0.316 µM, first compound 0.0316 µM
# [16] = second compound 0.316 µM, first compound 0.1 µM
# [17] = second compound 0.316 µM, first compound 0.316 µM
# [18] = second compound 0.316 µM, first compound 1 µM
# [19] = second compound 1 µM, first compound 0.00316 µM
# [20] = second compound 1 µM, first compound 0.01 µM
# [21] = second compound 1 µM, first compound 0.0316 µM
# [22] = second compound 1 µM, first compound 0.1 µM
# [23] = second compound 1 µM, first compound 0.316 µM
# [24] = second compound 1 µM, first compound 1 µM
# [25] = second compound 3.16 µM, first compound 0.00316 µM
# [26] = second compound 3.16 µM, first compound 0.01 µM
# [27] = second compound 3.16 µM, first compound 0.0316 µM
# [28] = second compound 3.16 µM, first compound 0.1 µM
# [29] = second compound 3.16 µM, first compound 0.316 µM
# [30] = second compound 3.16 µM, first compound 1 µM
# [31] = second compound 10 µM, first compound 0.00316 µM
# [32] = second compound 10 µM, first compound 0.01 µM
# [33] = second compound 10 µM, first compound 0.0316 µM
# [34] = second compound 10 µM, first compound 0.1 µM
# [35] = second compound 10 µM, first compound 0.316 µM
# [36] = second compound 10 µM, first compound 1 µM
# [37] = second compound 0.0316 µM, first compound 3.16 µM
# [38] = second compound 0.0316 µM, first compound 10 µM
# [39] = second compound 0.1 µM, first compound 3.16 µM
# [40] = second compound 0.1 µM, first compound 10 µM
# [41] = second compound 0.316 µM, first compound 3.16 µM
# [42] = second compound 0.316 µM, first compound 10 µM
# [43] = second compound 1 µM, first compound 3.16 µM
# [44] = second compound 1 µM, first compound 10 µM
# [45] = second compound 3.16 µM, first compound 3.16 µM
# [46] = second compound 3.16 µM, first compound 10 µM
# [47] = second compound 10 µM, first compound 3.16 µM
# [48] = second compound 10 µM, first compound 10 µM
# 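Note: spheroids exposed to compounds for seven days.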
# 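Throughout, for viability, T/C: 100% = DMSO vehicle control viability.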
smiles,measurement,setting,value
CCc1c2c(nc3ccc(O)cc13)-c1cc3c(c(=O)n1C2)COC(=O)[C@]3(O)CC + Nc1ccc(C#CCN(C(=O)Cc2ncc(C(F)(F)F)cc2C(F)(F)F)c2ccc(F)cc2)nn1,IC50,second compound 0.0316 µM,> 1000 nM
same,IC50,second compound 0.1 µM,> 1000 nM
same,IC50,second compound 0.316 µM,> 1000 nM
same,IC50,second compound 1 µM,> 1000 nM
same,IC50,second compound 3.16 µM,> 1000 nM
same,IC50,second compound 10 µM,> 1000 nM
same,"viability, T/C",[1],116%
same,"viability, T/C",[2],102%
same,"viability, T/C",[3],89.6%
same,"viability, T/C",[4],90.8%
same,"viability, T/C",[5],81.2%
same,"viability, T/C",[6],69.9%
same,"viability, T/C",[7],114%
same,"viability, T/C",[8],107%
same,"viability, T/C",[9],95.7%
same,"viability, T/C",[10],93.5%
same,"viability, T/C",[11],81.2%
same,"viability, T/C",[12],60%
same,"viability, T/C",[13],117%
same,"viability, T/C",[14],109%
same,"viability, T/C",[15],85.3%
same,"viability, T/C",[16],92.6%
same,"viability, T/C",[17],85.8%
same,"viability, T/C",[18],68.3%
same,"viability, T/C",[19],107%
same,"viability, T/C",[20],98.7%
same,"viability, T/C",[21],88.4%
same,"viability, T/C",[22],85.3%
same,"viability, T/C",[23],83.6%
same,"viability, T/C",[24],52.5%
same,"viability, T/C",[25],101%
same,"viability, T/C",[26],99.2%
same,"viability, T/C",[27],97.9%
same,"viability, T/C",[28],92%
same,"viability, T/C",[29],77%
same,"viability, T/C",[30],60.6%
same,"viability, T/C",[31],101%
same,"viability, T/C",[32],94.8%
same,"viability, T/C",[33],86.7%
same,"viability, T/C",[34],85%
same,"viability, T/C",[35],72.7%
same,"viability, T/C",[36],57.1%
CNCc1ccc(-c2[nH]c3cc(F)cc4c3c2CCNC4=O)cc1 + Nc1ccc(C#CCN(C(=O)Cc2ncc(C(F)(F)F)cc2C(F)(F)F)c2ccc(F)cc2)nn1,IC50,second compound 0.0316 µM,> 10000 nM
same,IC50,second compound 0.1 µM,> 10000 nM
same,IC50,second compound 0.316 µM,> 10000 nM
same,IC50,second compound 1 µM,> 10000 nM
same,IC50,second compound 3.16 µM,> 10000 nM
same,IC50,second compound 10 µM,> 10000 nM
same,"viability, T/C",[3],101%
same,"viability, T/C",[4],101%
same,"viability, T/C",[5],106%
same,"viability, T/C",[6],108%
same,"viability, T/C",[37],110%
same,"viability, T/C",[38],107%
same,"viability, T/C",[9],114%
same,"viability, T/C",[10],110%
same,"viability, T/C",[11],104%
same,"viability, T/C",[12],104%
same,"viability, T/C",[39],118%
same,"viability, T/C",[40],109%
same,"viability, T/C",[15],119%
same,"viability, T/C",[16],102%
same,"viability, T/C",[17],96.1%
same,"viability, T/C",[18],104%
same,"viability, T/C",[41],115%
same,"viability, T/C",[42],104%
same,"viability, T/C",[21],117%
same,"viability, T/C",[22],94%
same,"viability, T/C",[23],98.1%
same,"viability, T/C",[24],103%
same,"viability, T/C",[43],112%
same,"viability, T/C",[44],107%
same,"viability, T/C",[27],103%
same,"viability, T/C",[28],111%
same,"viability, T/C",[29],97.2%
same,"viability, T/C",[30],112%
same,"viability, T/C",[45],113%
same,"viability, T/C",[46],118%
same,"viability, T/C",[33],105%
same,"viability, T/C",[34],98.6%
same,"viability, T/C",[35],92.3%
same,"viability, T/C",[36],105%
same,"viability, T/C",[47],105%
same,"viability, T/C",[48],102%
COc1cccc(OCCCN)c1-c1cc(Nc2cnc(C#N)cn2)n[nH]1 + Nc1ccc(C#CCN(C(=O)Cc2ncc(C(F)(F)F)cc2C(F)(F)F)c2ccc(F)cc2)nn1,IC50,second compound 0.0316 µM,> 1000 nM
same,IC50,second compound 0.1 µM,> 1000 nM
same,IC50,second compound 0.316 µM,> 1000 nM
same,IC50,second compound 1 µM,> 1000 nM
same,IC50,second compound 3.16 µM,> 1000 nM
same,IC50,second compound 10 µM,252 nM
same,"viability, T/C",[1],106%
same,"viability, T/C",[2],99.7%
same,"viability, T/C",[3],94.4%
same,"viability, T/C",[4],82.8%
same,"viability, T/C",[5],68.8%
same,"viability, T/C",[6],53.5%
same,"viability, T/C",[7],115%
same,"viability, T/C",[8],94.1%
same,"viability, T/C",[9],88.7%
same,"viability, T/C",[10],85.7%
same,"viability, T/C",[11],66.3%
same,"viability, T/C",[12],51.9%
same,"viability, T/C",[13],104%
same,"viability, T/C",[14],101%
same,"viability, T/C",[15],80.9%
same,"viability, T/C",[16],82.1%
same,"viability, T/C",[17],73.6%
same,"viability, T/C",[18],49.7%
same,"viability, T/C",[19],105%
same,"viability, T/C",[20],94.2%
same,"viability, T/C",[21],91.6%
same,"viability, T/C",[22],85.4%
same,"viability, T/C",[23],70.3%
same,"viability, T/C",[24],50.7%
same,"viability, T/C",[25],95.3%
same,"viability, T/C",[26],90.1%
same,"viability, T/C",[27],80%
same,"viability, T/C",[28],69%
same,"viability, T/C",[29],59.4%
same,"viability, T/C",[30],50.2%
same,"viability, T/C",[31],95.8%
same,"viability, T/C",[32],86.2%
same,"viability, T/C",[33],69.7%
same,"viability, T/C",[34],59%
same,"viability, T/C",[35],46.6%
same,"viability, T/C",[36],44.3%
O=C(c1cc(Cc2n[nH]c(=O)c3ccccc23)ccc1F)N1CCN(C(=O)C2CC2)CC1 + Nc1ccc(C#CCN(C(=O)Cc2ncc(C(F)(F)F)cc2C(F)(F)F)c2ccc(F)cc2)nn1,IC50,second compound 0.0316 µM,> 10000 nM
same,IC50,second compound 0.1 µM,> 10000 nM
same,IC50,second compound 0.316 µM,> 10000 nM
same,IC50,second compound 1 µM,> 10000 nM
same,IC50,second compound 3.16 µM,> 10000 nM
same,IC50,second compound 10 µM,> 10000 nM
same,"viability, T/C",[3],106%
same,"viability, T/C",[4],104%
same,"viability, T/C",[5],101%
same,"viability, T/C",[6],103%
same,"viability, T/C",[37],110%
same,"viability, T/C",[38],106%
same,"viability, T/C",[9],108%
same,"viability, T/C",[10],103%
same,"viability, T/C",[11],105%
same,"viability, T/C",[12],112%
same,"viability, T/C",[39],103%
same,"viability, T/C",[40],102%
same,"viability, T/C",[15],99.9%
same,"viability, T/C",[16],102%
same,"viability, T/C",[17],102%
same,"viability, T/C",[18],103%
same,"viability, T/C",[41],114%
same,"viability, T/C",[42],102%
same,"viability, T/C",[21],103%
same,"viability, T/C",[22],100%
same,"viability, T/C",[23],98.7%
same,"viability, T/C",[24],95.9%
same,"viability, T/C",[43],113%
same,"viability, T/C",[44],106%
same,"viability, T/C",[27],103%
same,"viability, T/C",[28],97.7%
same,"viability, T/C",[29],99.9%
same,"viability, T/C",[30],103%
same,"viability, T/C",[45],117%
same,"viability, T/C",[46],104%
same,"viability, T/C",[33],95.8%
same,"viability, T/C",[34],105%
same,"viability, T/C",[35],107%
same,"viability, T/C",[36],96.6%
same,"viability, T/C",[47],97.6%
same,"viability, T/C",[48],96.1%
